The results in this text go back to patent US10745416B2, “Macrocyclic compounds for treating disease” (Turning Point Therapeutics, Inc., priority 2017, dated 2020).

SMILES strings stand for the structures.

Experiment in all cases: Cell proliferation assay (CellTiter-Glo, 72 hours)
One assay deals with T1, BaF3 EML4-ALK (Homo sapiens, UniProt Q9UM73).
T1 construct: The EML4-ALK gene (variant 1) was synthesized at GenScript and cloned into pCDH-CMV-MCS-EF1-Puro plasmid (System Biosciences, Inc); fused on or other part: Q9HC35 (Echinoderm microtubule-associated protein-like 4)
T1 sequence (Q9UM73 whole entry, change not shown, the tested form may be a part): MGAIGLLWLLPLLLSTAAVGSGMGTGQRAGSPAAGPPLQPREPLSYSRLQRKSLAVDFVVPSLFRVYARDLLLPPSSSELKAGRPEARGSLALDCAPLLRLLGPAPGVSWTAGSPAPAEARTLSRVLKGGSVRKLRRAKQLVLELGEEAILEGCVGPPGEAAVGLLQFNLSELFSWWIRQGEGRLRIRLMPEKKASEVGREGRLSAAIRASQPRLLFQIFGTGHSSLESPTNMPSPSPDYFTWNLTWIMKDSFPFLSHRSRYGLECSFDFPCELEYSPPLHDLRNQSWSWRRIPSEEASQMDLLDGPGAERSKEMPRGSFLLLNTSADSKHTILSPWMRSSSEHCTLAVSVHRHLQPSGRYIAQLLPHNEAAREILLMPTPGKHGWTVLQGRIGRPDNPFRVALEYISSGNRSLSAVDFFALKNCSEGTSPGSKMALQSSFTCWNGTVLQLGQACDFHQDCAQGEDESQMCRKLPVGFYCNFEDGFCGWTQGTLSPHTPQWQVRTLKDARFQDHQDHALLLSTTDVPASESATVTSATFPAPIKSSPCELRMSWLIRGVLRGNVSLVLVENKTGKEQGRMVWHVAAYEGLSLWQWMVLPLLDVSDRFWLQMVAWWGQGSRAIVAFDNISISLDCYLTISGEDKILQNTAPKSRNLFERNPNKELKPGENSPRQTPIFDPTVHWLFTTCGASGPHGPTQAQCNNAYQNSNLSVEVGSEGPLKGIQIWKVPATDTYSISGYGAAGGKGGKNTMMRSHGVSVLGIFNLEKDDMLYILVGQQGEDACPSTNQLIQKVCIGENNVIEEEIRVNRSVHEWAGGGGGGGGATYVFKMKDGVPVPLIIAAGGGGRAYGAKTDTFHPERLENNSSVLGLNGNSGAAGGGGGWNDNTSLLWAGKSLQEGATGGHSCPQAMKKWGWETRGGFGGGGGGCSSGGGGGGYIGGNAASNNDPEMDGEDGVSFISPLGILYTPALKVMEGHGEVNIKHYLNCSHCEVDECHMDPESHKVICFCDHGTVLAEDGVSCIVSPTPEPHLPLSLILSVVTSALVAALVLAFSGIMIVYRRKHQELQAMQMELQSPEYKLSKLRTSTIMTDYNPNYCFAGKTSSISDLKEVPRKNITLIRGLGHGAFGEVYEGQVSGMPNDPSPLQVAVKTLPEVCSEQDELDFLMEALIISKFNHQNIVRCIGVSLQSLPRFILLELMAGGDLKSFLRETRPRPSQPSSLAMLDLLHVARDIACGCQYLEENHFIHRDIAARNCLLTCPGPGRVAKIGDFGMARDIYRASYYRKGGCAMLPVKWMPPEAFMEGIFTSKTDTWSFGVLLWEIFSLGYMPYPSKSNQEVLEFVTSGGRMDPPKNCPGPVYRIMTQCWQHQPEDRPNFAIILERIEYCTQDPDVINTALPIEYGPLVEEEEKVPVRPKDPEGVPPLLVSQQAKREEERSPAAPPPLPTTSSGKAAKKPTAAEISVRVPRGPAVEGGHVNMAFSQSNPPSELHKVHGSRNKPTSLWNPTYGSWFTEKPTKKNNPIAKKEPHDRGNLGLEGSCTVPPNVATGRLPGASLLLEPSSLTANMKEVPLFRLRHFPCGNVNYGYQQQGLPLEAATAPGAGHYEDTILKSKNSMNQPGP
The class given is cell-based. The following applies: anti-cell proliferation. As for the experimental part: The EML4-ALK gene (variant 1) was synthesized at GenScript and cloned into pCDH-CMV-MCS-EF1-Puro plasmid (System Biosciences, Inc). Ba/F3-EML4-ALK wild type were generated by transducing Ba/F3 cells with lentivirus containing EML4-ALK wide type. Stable cell lines were selected by puromycin treatment, followed by IL-3 withdrawal. Briefly, 5×10^6 Ba/F3 cells were transduced with lentivirus supernatant in the presence of 8 μg/mL protamine sulfate. The transduced cells were subsequently selected with 1 μg/mL puromycin in the presence of IL3-containing medium RPMI1640, plus 10% FBS. After 10-12 days of selection, the surviving cells were further selected for IL3 independent growth.
(§1) Two thousand cells per well were seeded in 384 well white plate for 24 hrs, and then treated with compounds for 72 hours (37° C., 5% CO2). Cell proliferation was measured using CellTiter-Glo luciferase-based ATP detection assay (Promega) following the manufactures's protocol. IC50 determinations were performed using GraphPad Prism software (GraphPad, Inc., San Diego, Calif.).

A further assay relates to KG-1. It is filed as cell-based, human. Particulars: Homo sapiens, KG-1, anti-cell proliferation. How it is done: (§2) Human medulla thyroid carcinoma cell line TT (containing RET […] mutation) and acute myelogenous cell line KG-1 were purchased from ATCC. Human colon cancer cell line KMI2 (containing TPM3-TRKA) was obtained from NCI.
as §1

In another assay the test system is KM12 cell (TPM3-TRKA). The class given is cell-based, human. The following applies: Homo sapiens, KM12, anti-cell proliferation. How it is done:
as §2, §1

The next assay has as its target T2, BaF3 KIF5B-RET (Homo sapiens, UniProt P07949).
T2 construct: fused on or other part: P33176 (Kinesin-1 heavy chain)
It is filed as cell-based. The following applies: anti-cell proliferation, read-out: BaF3 KIF5B-RET IC50.
Text: (§3) The KIF5B-RET gene was synthesized at GenScript and cloned into pCDH-CMV-MCS-EF1-Puro plasmid (System Biosciences, Inc). KIF5B-RET point mutation V804M was generated at GenScript by PCR and confirmed by sequencing. Ba/F3-KIF5B-RET wild type and mutant were generated by transducing Ba/F3 cells with lentivirus containing KIF5B-RET wide type or mutant. Stable cell lines were selected by puromycin treatment, followed by IL-3 withdrawal. Briefly, 5×10^6 Ba/F3 cells were transduced with lentivirus supernatant in the presence of 8 μg/mL protamine sulfate. The transduced cells were subsequently selected with 1 µg/mL puromycin in the presence of IL3-containing medium RPMI1640, plus 10% FBS. After 10-12 days of selection, the surviving cells were further selected for IL3 independent growth.
as §1

Another assay deals with T3, BaF3 KIF5B-RET_V804M (Homo sapiens, UniProt P07949, V804M, cells depend on it).
T3 construct: fused on or other part: P33176 (Kinesin-1 heavy chain)
T3 sequence (P07949 whole entry V804M, the tested form may be a part): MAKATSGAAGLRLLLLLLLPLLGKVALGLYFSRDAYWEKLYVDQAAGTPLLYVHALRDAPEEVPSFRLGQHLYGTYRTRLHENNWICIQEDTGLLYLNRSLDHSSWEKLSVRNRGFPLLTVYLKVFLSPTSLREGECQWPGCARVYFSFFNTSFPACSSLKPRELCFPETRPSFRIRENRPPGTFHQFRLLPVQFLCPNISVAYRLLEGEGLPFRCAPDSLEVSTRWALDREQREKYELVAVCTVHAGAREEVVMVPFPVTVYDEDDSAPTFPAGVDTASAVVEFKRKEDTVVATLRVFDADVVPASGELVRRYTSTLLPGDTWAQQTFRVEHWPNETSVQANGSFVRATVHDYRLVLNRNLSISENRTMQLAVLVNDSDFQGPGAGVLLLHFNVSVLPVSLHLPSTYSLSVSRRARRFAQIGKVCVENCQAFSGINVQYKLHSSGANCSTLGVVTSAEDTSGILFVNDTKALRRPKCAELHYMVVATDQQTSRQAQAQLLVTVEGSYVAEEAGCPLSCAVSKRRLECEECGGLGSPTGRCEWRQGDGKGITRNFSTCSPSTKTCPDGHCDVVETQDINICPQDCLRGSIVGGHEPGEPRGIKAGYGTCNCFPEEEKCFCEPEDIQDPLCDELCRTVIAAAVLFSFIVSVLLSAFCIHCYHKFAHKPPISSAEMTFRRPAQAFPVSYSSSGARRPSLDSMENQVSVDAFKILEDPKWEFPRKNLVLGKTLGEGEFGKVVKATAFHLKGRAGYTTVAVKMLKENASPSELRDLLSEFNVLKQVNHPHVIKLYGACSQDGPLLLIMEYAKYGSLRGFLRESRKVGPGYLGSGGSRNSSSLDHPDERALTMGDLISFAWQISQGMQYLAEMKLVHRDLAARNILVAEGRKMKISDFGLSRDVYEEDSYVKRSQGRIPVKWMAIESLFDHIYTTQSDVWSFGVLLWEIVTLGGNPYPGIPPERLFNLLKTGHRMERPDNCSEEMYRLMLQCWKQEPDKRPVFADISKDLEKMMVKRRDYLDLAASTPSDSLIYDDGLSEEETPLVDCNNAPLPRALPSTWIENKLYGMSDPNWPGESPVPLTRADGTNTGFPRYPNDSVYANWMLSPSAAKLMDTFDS
It is filed as cell-based. Particulars: anti-cell proliferation, read-out: BaF3 KIF5B-RET_V804M IC50.
Text: as §3, §1

The target of a further assay is T4, BaF3 KIF5B-RET_G810R (Homo sapiens, UniProt P07949, G810R, cells depend on it).
T4 construct: fused on or other part: P33176 (Kinesin-1 heavy chain)
T4 sequence (P07949 whole entry G810R, the tested form may be a part): as the sequence (P07949 whole entry V804M, the tested form may be a part) above, with M804V, G810R counted along it
It is filed as cell-based. The following applies: anti-cell proliferation, read-out: BaF3 KIF5B-RET_G810R IC50.
Text: [The source words this procedure for another variant and reports this variant under the same test.] as §3, §1

T2 sequence (P07949 whole entry, change not shown, the tested form may be a part): as the sequence (P07949 whole entry V804M, the tested form may be a part) above, with M804V counted along it

With `C[C@@H]1COc2ncc(F)cc2CN2c3nc4c(cnn4cc3O[C@H]3CC[C@H]32)C(=O)N1` [Compound 10, (2aR,11R,19aS)-6-fluoro-11-methyl-1,2,2a,11,12,19a-hexahydro-4H-16,18-(metheno)cyclobuta[5,6][1,4] oxazino[3,4-i]pyrazolo[4,3-f]pyrido[3,2-l][1,4,8,10]oxatriazacyclotridecin-13(10H)-one], the values for the GI50 on BaF3 EML4-ALK, on BaF3 KIF5B-RET and on BaF3 KIF5B-RET_V804M were 4000 nM, 274 nM and 1210 nM, respectively. Besides, the figures for the IC50 in the assay with KG-1 and with KM12 cell (TPM3-TRKA) were 78.3 nM and 0.2 nM, respectively.
In the case of `CC(=O)N1C[C@@H]2Oc3cn4ncc5c4nc3N(Cc3cc(F)cnc3O[C@@H](C)CNC5=O)[C@@H]2C1` [Compound 36, (3aR,11S,20aS)-2-acetyl-7-fluoro-11-methyl-2,3,3a,12,13,20a-hexahydro-1H, 5H-17,19-(metheno)pyrazolo[4,3-f]pyrido [3,2-l]pyrrolo[3′,4′:5,6][1,4]oxazino[3,4-i][1,4,8,10]oxatriazacyclotridecin-14(11H)-one], the values for the GI50 at BaF3 EML4-ALK and at BaF3 KIF5B-RET were greater than 10000 nM and 8000 nM, respectively. Moreover, the results for the IC50 in the assay on KG-1 and with KM12 cell (TPM3-TRKA) were 10000 nM and 1000 nM, respectively.
For `C[C@@H]1COc2ncc(F)cc2CN2c3nc4c(cnn4cc3O[C@@H]3CC[C@@H]32)C(=O)N1` [Compound 11, (2aS,11R,19aR)-6-fluoro-11-methyl-1,2,2a,11,12,19a-hexahydro-4H-16,18-(metheno)cyclobuta[5,6][1,4] oxazino[3,4-i]pyrazolo[4,3-f]pyrido[3,2-l][1,4,8,10]oxatriazacyclotridecin-13(10H)-one], the IC50 in the assay with KG-1 amounted to 307 nM; in the assay with KM12 cell (TPM3-TRKA), 0.4 nM. Besides, the GI50 is 839 nM at BaF3 KIF5B-RET and 3000 nM on BaF3 KIF5B-RET_V804M.
On to `CC1(C)CCOc2ncc(F)cc2CN2c3nc4c(cnn4cc3O[C@H]3CCC[C@H]32)C(=O)N1` [Compound 34, (3aR,21aS)-7-fluoro-13,13-dimethyl-2,3,3a,11,12,13,14,21a-octahydro-1H,5H,15H-18,20-(metheno)cyclopenta[5,6][1,4]oxazino[4,3-e]pyrazolo[3,4-h]pyrido[2,3-b][1,5,7,11]oxatriazacyclotetradecin-15-one], for which the values for the GI50 at BaF3 EML4-ALK, at BaF3 KIF5B-RET and at BaF3 KIF5B-RET_G810R were 1000 nM, 62.2 nM and 651 nM, respectively. Moreover, the IC50 in the assay with KG-1 stood at 408 nM; with KM12 cell (TPM3-TRKA), 50 nM.
For the compound `C[C@@H]1CCNC(=O)c2cnn3cc4c(nc23)N(Cc2cc(F)cnc2O1)[C@@H]1CCC[C@@H]1O4` [Compound 35, (3aR,11R,21aS)-7-fluoro-11-methyl-2,3,3a,11,12,13,14,21a-octahydro-1H,5H,15H-18,20-(metheno)cyclopenta[5,6][1,4]oxazino[4,3-e]pyrazolo[3,4-h]pyrido[2,3-b][1,5,7,11]oxatriazacyclotetradecin-15-one], the GI50 on BaF3 EML4-ALK was found to be 1100 nM; on BaF3 KIF5B-RET, 8.8 nM. In addition, the figures for the IC50 in the assay on KG-1 and in the assay with KM12 cell (TPM3-TRKA) were 55.7 nM and less than 0.2 nM, respectively.
Take `O=C1N[C@H](C2CC2)COc2ncc(F)cc2CN2c3nc4c1cnn4cc3O[C@H]1CCC[C@H]12` [Compound 14, (3aR,12R,20aS)-12-cyclopropyl-7-fluoro-2,3,3a,12,13,20a-hexahydro-1H,5H-17-19-(metheno)cyclopenta[5,6][1,4] oxazino[4,3-i]pyrazolo[4,3-f]pyrido[3,2-l][1,4,8,10]oxatriazacyclotridecin-14(11H)-one]: the GI50 on BaF3 EML4-ALK was determined as 908 nM; at BaF3 KIF5B-RET, 120 nM; on BaF3 KIF5B-RET_G810R, 530 nM. Besides, the IC50 in the assay with KG-1 stood at 273 nM; in the assay on KM12 cell (TPM3-TRKA) it was 26.6 nM.
As to `CC(=O)N1C[C@H]2Oc3cn4ncc5c4nc3N(Cc3cc(F)cnc3O[C@@H](C)CNC5=O)[C@H]2C1` [Compound 37, (3aS,11S,20aR)-2-acetyl-7-fluoro-11-methyl-2,3,3a,12,13,20a-hexahydro-1H, 5H-17,19-(metheno)pyrazolo[4,3-f]pyrido [3,2-l]pyrrolo[3′,4′:5,6][1,4]oxazino[3,4-i][1,4,8,10]oxatriazacyclotridecin-14(11H)-one], the values for the GI50 at BaF3 EML4-ALK and at BaF3 KIF5B-RET were greater than 10000 nM and 8000 nM, respectively. Further, the IC50 in the assay with KG-1 stood at 3000 nM; in the assay with KM12 cell (TPM3-TRKA), 1200 nM.
For `C[C@H]1CNC(=O)c2cnn3cc4c(nc23)N(Cc2cc(F)cnc2O1)[C@H]1COC[C@H]1O4` [Compound 31, (3aS,11S,20aS)-7-fluoro-11-methyl-1,3,3a,12,13,20a-hexahydro-5H-17,19-(metheno)furo[3′,4′:5,6][1,4]oxazino[3,4-i]pyrazolo[4,3-f]pyrido[3,2-l][1,4,8,10]oxatriazacyclotridecin-14(11H)-one], the IC50 in the assay with KG-1 was found to be 10000 nM; with KM12 cell (TPM3-TRKA), 365 nM. Also, the GI50 at BaF3 KIF5B-RET was 4000 nM; at BaF3 KIF5B-RET_G810R it was greater than 10000 nM; on BaF3 KIF5B-RET_V804M, greater than 10000 nM.
As for `O=C1N[C@@H]2CC[C@@H](C2)Oc2ncc(F)cc2CN2c3nc4c1cnn4cc3O[C@H]1CCC[C@H]12` [Compound 42, (3aR,11S,14R,22aS)-7-fluoro-2,3,3a,12,13,14,15,22a-octahydro-1H, 5H-11,14-metheno-19,21-(metheno)cyclopenta[5,6][1,4] oxazino[4,3-e]pyrazolo[3,4-h]pyrido[2,3-b][1,5,7,11]oxatriazacyclopentadecin-16(11H)-one], the GI50 is 338 nM at BaF3 EML4-ALK, 0.5 nM on BaF3 KIF5B-RET and 17.4 nM at BaF3 KIF5B-RET_G810R. For the same compound, the values for the IC50 in the assay on KG-1 and in the assay with KM12 cell (TPM3-TRKA) were 41 nM and 9.8 nM, respectively.
Turning to `C[C@H]1CNC(=O)c2cnn3cc4c(nc23)N(Cc2cc(F)cnc2O1)[C@@H]1CC[C@@H]1O4` [Compound 8, (2aR,10S,19aS)-6-fluoro-10-methyl-1,2,2a,11,12,19a-hexahydro-4H-16,18-(metheno)cyclobuta[5,6][1,4] oxazino[3,4-i]pyrazolo[4,3-f]pyrido[3,2-l][1,4,8,10]oxatriazacyclotridecin-13(10H)-one], the GI50 on BaF3 EML4-ALK was 4000 nM; on BaF3 KIF5B-RET, 342 nM; at BaF3 KIF5B-RET_V804M, 1930 nM. Also, the figures for the IC50 in the assay on KG-1 and in the assay with KM12 cell (TPM3-TRKA) were 189 nM and 0.3 nM, respectively.
Take `O=C1NC[C@@H](O)COc2ncc(F)cc2CN2c3nc4c1cnn4cc3O[C@H]1CCC[C@H]12` [Compound 43, (3aR,12R,21aS)-7-fluoro-12-hydroxy-2,3,3a,11,12,13,14,21a-octahydro-1H, 5H,15H-18,20-(metheno)cyclopenta[5,6][1,4] oxazino[4,3-e]pyrazolo[3,4-h]pyrido[2,3-b][1,5,7,11]oxatriazacyclotetradecin-15-one]: the GI50 stood at 2990 nM on BaF3 EML4-ALK, 68.9 nM at BaF3 KIF5B-RET and 396 nM at BaF3 KIF5B-RET_G810R. Further, the values for the IC50 in the assay on KG-1 and in the assay on KM12 cell (TPM3-TRKA) were 359 nM and 109 nM, respectively.
In the same order, the values of `O=C1N[C@H]2CC[C@H](C2)Oc2ncc(F)cc2CN2c3nc4c1cnn4cc3O[C@H]1CCC[C@H]12` [Compound 41, (3aR,11R,14S,22aS)-7-fluoro-2,3,3a,12,13,14,15,22a-octahydro-1H, 5H-11,14-metheno-19,21-(metheno)cyclopenta[5,6][1,4] oxazino[4,3-e]pyrazolo[3,4-h]pyrido[2,3-b][1,5,7,11]oxatriazacyclopentadecin-16(11H)-one] are 1450 nM, 5.1 nM, 156 nM, 389 nM and 431 nM.
Consider `C[C@H]1CNC(=O)c2cnn3cc4c(nc23)N(Cc2cc(F)cnc2O1)[C@H]1CC[C@H]1O4` [Compound 9, (2aS,10S,19aR)-6-fluoro-10-methyl-1,2,2a,11,12,19a-hexahydro-4H-16,18-(metheno)cyclobuta[5,6][1,4] oxazino[3,4-i]pyrazolo[4,3-f]pyrido[3,2-l][1,4,8,10]oxatriazacyclotridecin-13(10H)-one], for which the results for the GI50 on BaF3 EML4-ALK, at BaF3 KIF5B-RET and on BaF3 KIF5B-RET_V804M were 8000 nM, 2360 nM and greater than 10000 nM, respectively. Further, the values for the IC50 in the assay with KG-1 and in the assay on KM12 cell (TPM3-TRKA) were 1000 nM and 3.3 nM, respectively.
